Measurements reported in US6737383B1, “Herbicidal oxadiazolidines” (priority 1999, dated 2004).

How the values were obtained:
[1] = system: bedstraw; experiment: Test B pre/postemergence bedstraw; assay type: in vivo, Galium aparine; conditions: Preemergence, Rate 62 g/ha; scale 0 to 10 (0 no effect, 10 complete control)
In short: (§1)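 Herbicidal effect was estimated by eye on a ten-point control scale after plants spent twelve to sixteen days in a greenhouse following soil or foliar treatment. Foliar sprays targeted plants at one to four leaves; all doses were formulated in a non-phytotoxic solvent with surfactant.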

[2] = system: blackgrass; experiment: Test B pre/postemergence blackgrass; assay type: in vivo, Alopecurus myosuroides
In short: as §1

[3] = system: surinam grass; experiment: Test B pre/postemergence surinam grass; assay type: in vivo, Brachiaria decumbens
In short: as §1

[4] = system: cocklebur; experiment: Test B pre/postemergence cocklebur; assay type: in vivo, Xanthium strumarium
In short: as §1

[5] = system: corn; experiment: Test B pre/postemergence corn; assay type: in vivo, Zea mays
In short: as §1

[6] = system: crabgrass; experiment: Test B pre/postemergence crabgrass; assay type: in vivo, Digitaria sanguinalis
In short: as §1

[7] = system: giant foxtail; experiment: Test B pre/postemergence giant foxtail; assay type: in vivo, Setaria faberii
In short: as §1

[8] = system: morningglory; experiment: Test B pre/postemergence morningglory; assay type: in vivo, Ipomoea hederacea
In short: as §1

[9] = system: velvetleaf; experiment: Test B pre/postemergence velvetleaf; assay type: in vivo, Abutilon theophrasti
In short: as §1

[10] = system: wheat; experiment: Test B pre/postemergence wheat; assay type: in vivo, Triticum aestivum
In short: as §1

[11] = system: wild oat; experiment: Test B pre/postemergence wild oat; assay type: in vivo, Avena fatua
In short: as §1

[12] = system: purple nutsedge; experiment: Test B pre/postemergence purple nutsedge; assay type: in vivo, Cyperus rotundus
In short: as §1

[13] = system: rice; experiment: Test B flood test rice; assay type: in vivo, Oryza sativa
In short: (§2)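 Each value is a visual injury score relative to controls, with 10 meaning complete control and 0 no effect. Evaluation took place twelve to sixteen days after the 2-leaf-stage plants were treated and kept in the greenhouse.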

[14] = system: smallflower flatsedge; experiment: Test B flood test smallflower flatsedge; assay type: in vivo, Cyperus difformis
In short: as §2

[15] = system: duck salad; experiment: Test B flood test duck salad; assay type: in vivo, Heteranthera limosa
In short: as §2

[16] = system: bamyardgrass; experiment: Test B flood test barnyardgrass; assay type: in vivo, Echinochloa crus-galli
In short: as §2

[17] = Postemergence, Rate 250 g/ha, scale 0 to 10
[18] = Postemergence, Rate 500 g/ha, scale of 0 to 10 where 0 is no effect and 10 is complete control
[19] = Preemergence, Rate 62 g/ha, scale 0 to 10 (0 no effect, 10 complete control)
[20] = Preemergence, Rate 125 g/ha, scale of 0 to 10 where 0 is no effect and 10 is complete control
[21] = Preemergence, Rate 250 g/ha, scale 0 to 10, 0 is no effect, 10 is complete control
[22] = Preemergence, Rate 500 g/ha, scale 0 to 10, 0 is no effect, 10 is complete control
[23] = Rate 62 g/ha, Postemergence, scale of 0 to 10 where 0 is no effect and 10 is complete control
[24] = Rate 125 g/ha, Postemergence, scale 0 to 10, 0 is no effect, 10 is complete control
[25] = Postemergence block (flood test species), Rate 250 g/ha, scale 0 to 10
[26] = Postemergence section (flood test species), Rate 500 g/ha, scale of 0 to 10 where 0 is no effect and 10 is complete control
[27] = Rate 125 g/ha, Postemergence section (flood test species), scale 0 to 10, 0 is no effect, 10 is complete control
[28] = Rate 62 g/ha, Postemergence (flood test species), scale of 0 to 10 where 0 is no effect and 10 is complete control

How did the “Plant response rating, Bedstraw” value [1] turn out when CC(C)N(C(=O)n1oc(=O)n(CC#N)c1=O)c1ccc(F)cc1F [Compound 431] was run?
The value was 0.

And the “Blackgrass plant response rating” value [2, 17]?
The value was 2.

What about the “Blackgrass plant response rating” value [2, 18] of the same compound?
Its value is 5.

What about the “Plant response rating, Blackgrass” value [2, 19] of the same compound?
The value was 0.

And the “Plant response rating, Blackgrass” value [2, 20]?
Its value is 0.

And the “Blackgrass plant response rating” value [2, 21]?
The value was 0.

What about the “Blackgrass plant response rating” value [2, 22] of the same compound?
Its value is 3.

What about the “Blackgrass plant response rating” value [2, 23] of the same compound?
Its value is 0.

And the “Blackgrass plant response rating” value [2, 24]?
The value was 0.

And the “B. signalgrass plant response rating” value ([3]; Postemergence, Rate 250 g/ha, scale 0 to 10, 0 no effect, 10 complete control)?
Its value is 0.

And the “B. signalgrass plant response rating” value [3, 18]?
Its value is 2.

And the “Plant response rating, B. signalgrass” value [3, 19]?
The value was 0.

And the “Plant response rating, B. signalgrass” value [3, 20]?
The value was 0.

What about the “B. signalgrass plant response rating” value [3, 21] of the same compound?
The value was 0.

And the “B. signalgrass plant response rating” value [3, 22]?
Its value is 0.

What about the “B. signalgrass plant response rating” value [3, 23] of the same compound?
Its value is 0.

And the “B. signalgrass plant response rating” value [3, 24]?
Its value is 0.

What about the “Cocklebur plant response rating” value [4, 17] of the same compound?
The value was 0.

What about the “Cocklebur plant response rating” value [4, 18] of the same compound?
Its value is 0.

What about the “Plant response rating, Cocklebur” value [4, 19] of the same compound?
Its value is 0.

What about the “Plant response rating, Cocklebur” value [4, 20] of the same compound?
Its value is 0.

And the “Cocklebur plant response rating” value [4, 21]?
The value was 0.

And the “Cocklebur plant response rating” value [4, 23]?
The value was 0.

What about the “Cocklebur plant response rating” value [4, 24] of the same compound?
Its value is 0.

What about the “Corn plant response rating” value [5, 17] of the same compound?
The value was 0.

What about the “Corn plant response rating” value [5, 18] of the same compound?
The value was 0.

And the “Plant response rating, Corn” value [5, 19]?
The value was 0.

And the “Plant response rating, Corn” value [5, 20]?
Its value is 0.

What about the “Corn plant response rating” value [5, 21] of the same compound?
The value was 0.

And the “Corn plant response rating” value [5, 22]?
The value was 0.

What about the “Corn plant response rating” value [5, 23] of the same compound?
The value was 0.

And the “Corn plant response rating” value [5, 24]?
Its value is 0.

What about the “Crabgrass plant response rating” value [6, 17] of the same compound?
Its value is 0.

And the “Crabgrass plant response rating” value [6, 18]?
Its value is 2.

And the “Plant response rating, Crabgrass” value [6, 19]?
The value was 0.

And the “Crabgrass plant response rating” value [6, 22]?
Its value is 3.

What about the “Crabgrass plant response rating” value [6, 23] of the same compound?
The value was 0.

What about the “Crabgrass plant response rating” value [6, 24] of the same compound?
The value was 0.

And the “Giant foxtail plant response rating” value [7, 17]?
The value was 0.

What about the “Giant foxtail plant response rating” value [7, 18] of the same compound?
The value was 6.

What about the “Plant response rating, Giant foxtail” value [7, 19] of the same compound?
The value was 0.

And the “Plant response rating, Giant foxtail” value [7, 20]?
The value was 0.

And the “Giant foxtail plant response rating” value [7, 21]?
The value was 2.

And the “Giant foxtail plant response rating” value [7, 22]?
Its value is 3.

And the “Giant foxtail plant response rating” value [7, 23]?
Its value is 0.

What about the “Giant foxtail plant response rating” value [7, 24] of the same compound?
Its value is 0.

And the “Morningglory plant response rating” value [8, 17]?
The value was 1.

And the “Morningglory plant response rating” value [8, 18]?
Its value is 2.

And the “Plant response rating, Morningglory” value [8, 19]?
Its value is 0.

And the “Plant response rating, Morningglory” value [8, 20]?
The value was 0.

And the “Morningglory plant response rating” value [8, 21]?
The value was 0.

What about the “Morningglory plant response rating” value [8, 22] of the same compound?
The value was 0.

And the “Morningglory plant response rating” value [8, 24]?
Its value is 1.

And the “Velvetleaf plant response rating” value [9, 17]?
The value was 0.

What about the “Velvetleaf plant response rating” value [9, 18] of the same compound?
The value was 2.

What about the “Plant response rating, Velvetleaf” value [9, 19] of the same compound?
The value was 0.

And the “Plant response rating, Velvetleaf” value [9, 20]?
Its value is 0.

What about the “Velvetleaf plant response rating” value [9, 21] of the same compound?
Its value is 0.

And the “Velvetleaf plant response rating” value [9, 22]?
Its value is 0.

And the “Velvetleaf plant response rating” value [9, 24]?
The value was 0.

What about the “Wheat plant response rating” value [10, 17] of the same compound?
The value was 0.

And the “Wheat plant response rating” value [10, 18]?
The value was 0.

And the “Plant response rating, Wheat” value [10, 19]?
The value was 0.

What about the “Plant response rating, Wheat” value [10, 20] of the same compound?
Its value is 0.

And the “Wheat plant response rating” value [10, 21]?
The value was 0.

What about the “Wheat plant response rating” value [10, 22] of the same compound?
The value was 0.

What about the “Wheat plant response rating” value [10, 24] of the same compound?
Its value is 0.

What about the “Wild oats plant response rating” value [11, 17] of the same compound?
Its value is 0.

What about the “Wild oats plant response rating” value [11, 18] of the same compound?
The value was 0.

And the “Plant response rating, Wild oats” value [11, 19]?
The value was 0.

And the “Plant response rating, Wild oats” value [11, 20]?
Its value is 0.

What about the “Wild oats plant response rating” value [11, 21] of the same compound?
The value was 2.

What about the “Wild oats plant response rating” value [11, 22] of the same compound?
The value was 2.

What about the “Wild oats plant response rating” value [11, 24] of the same compound?
Its value is 0.

What about the “Nutsedge plant response rating” value [12, 17] of the same compound?
The value was 0.

What about the “Nutsedge plant response rating” value [12, 18] of the same compound?
Its value is 0.

What about the “Plant response rating, Nutsedge” value [12, 19] of the same compound?
The value was 0.

What about the “Plant response rating, Nutsedge” value [12, 20] of the same compound?
The value was 0.

And the “Nutsedge plant response rating” value [12, 21]?
The value was 0.

What about the “Nutsedge plant response rating” value [12, 22] of the same compound?
The value was 0.

What about the “Nutsedge plant response rating” value [12, 24] of the same compound?
Its value is 0.

What about the “Rice plant response rating” value [13, 25] of the same compound?
The value was 0.

And the “Rice plant response rating” value [13, 26]?
The value was 0.

And the “Rice plant response rating” value [13, 27]?
The value was 0.

And the “S. Flatsedge plant response rating” value [14, 25]?
Its value is 0.

And the “S. Flatsedge plant response rating” value [14, 26]?
Its value is 0.

And the “S. Flatsedge plant response rating” value [14, 27]?
The value was 0.

What about the “Ducksalad plant response rating” value [15, 25] of the same compound?
Its value is 0.

What about the “Ducksalad plant response rating” value [15, 26] of the same compound?
The value was 0.

What about the “Ducksalad plant response rating” value [15, 28] of the same compound?
The value was 0.

What about the “Ducksalad plant response rating” value [15, 27] of the same compound?
The value was 0.

And the “Barnyardgrass plant response rating” value [16, 25]?
The value was 0.

What about the “Barnyardgrass plant response rating” value [16, 26] of the same compound?
Its value is 0.

And the “Barnyardgrass plant response rating” value [16, 28]?
Its value is 0.

And the “Barnyardgrass plant response rating” value [16, 27]?
Its value is 0.
